The results in this text go back to patent US9079901B2, “Fused heterocyclic compounds as ion channel modulators” (Gilead Sciences, Inc., priority 2010, dated 2015).

For the experiment, the target named is wild-type human cardiac sodium channel, hNav1.5 (late sodium current) in HEK293 cells (Homo sapiens, UniProt Q14524). Briefly: Late INa screening assay (automated whole-cell patch clamp, PatchXpress). In kind it is cell-based. The note with it: late INa generated with 10 μM Tefluthrin (or 50 nM ATX II), HEK293 hNav1.5; for inhibition at 1 µM: HEK293, compound at 1 μM, read-out: Late INa 1 μM (percent block of late INa). The procedure:
The late sodium current (Late INa) and peak sodium current (Peak INa) assays are performed on an automated electrophysiology platform, PatchXpress 7000A (MDS Analytical Technologies, Sunnyvale, Calif.), which uses the whole cell patch clamp technique to measure currents through the cell membrane of up to 16 cells at a time. The assay uses an HEK293 (human embryonic kidney) cell line heterologously expressing the wild-type human cardiac sodium channel, hNav1.5, purchased from Millipore (Billerica, Mass.). No beta subunits were coexpressed with the Na channel alpha subunit. Cells are maintained with standard tissue culture procedures and stable channel expression is maintained with 400 μg/ml Geneticin in the culture medium. Cells isolated for use on PatchXpress are incubated for 5 minutes in Versene 1× and then for 2 minutes in 0.0125% Trypsin-EDTA (both at 37° C.) to ensure that 80-90% of the cells are single and not part of a cell cluster. Experiments are carried out at 24-27° C.
For both the Late INa and Peak INa assays, series resistance compensation is set to 50% and whole-cell compensation is performed automatically. Currents are low-pass filtered at 10 kHz and digitized at 31.25 kHz. Currents through open sodium channels are automatically recorded and stored in the DataXpress2 database (MDS Analytical Technologies, Sunnyvale, Calif.). Analysis is performed using DataXpress2 analysis software and data are compiled in Excel.
Compound stocks are routinely made in glass vials to 10 mM in dimethyl sulfoxide (DMSO). In some cases, when compounds are not soluble in DMSO, they are made in 100% ethanol. Stocks are sonicated as necessary. The extracellular solution for screening Late INa is composed of: 140 mM NaCl, 4 mM KCl, 1.8 mM CaCl2, 0.75 mM MgCl2, and 5 mM HEPES with pH adjusted to 7.4 using NaOH. The extracellular solution for screening Peak INa is composed of: 20 mM NaCl, 120 mM N-methyl-D glucamine, 4 mM KCl, 1.8 mM CaCl2, 0.75 mM MgCl2, and 5 mM HEPES with pH adjusted to 7.4 using HCl. The intracellular solution used to perfuse the inside of the cells for both the Late INa and Peak INa assays contains: 120 mM CsF, 20 mM CsCl, 5 mM EGTA, 5 mM HEPES and pH adjusted to 7.4 with CsOH. Compounds are diluted in extracellular solution to 10 μM in glass vials and then transferred to glass well plates before robotic addition to the cells. The 0Na extracellular solution used at the end of each experiment for the Late INa and Peak INa assays to measure baseline current contains: 140 mM N-methyl-D-glucamine; 4 mM KCl; 1.8 mM CaCl2; 0.75 mM MgCl2; 5 mM HEPES and pH was adjusted to 7.4 with HCl.
For the Late INa assay, sodium channels are activated every 10 seconds (0.1 Hz) by depolarizing the cell membrane to −20 mV for 250 milliseconds (ms) from a holding potential of −120 mV. In response to a −20 mV voltage step, typical Nav1.5 sodium currents activate rapidly to a peak negative current and then inactivate nearly completely within 3-4 ms.
All compounds are tested to determine their activity in blocking the late sodium current. Late INa current is generated by adding 10 μM Tefluthrin (pyrethroid) to the extracellular solution while recording Na currents. For some experiments, 50 nM ATX II (sea anemone toxin), another late INa activator, was used to generate the late component. Both activators generate late components that are large enough that block of the late component by compounds can be measured easily. For the purposes of the screening, late INa is defined as the mean current between 225 ms and 250 ms after stepping to −20 mV to activate Na channels. After establishing the whole cell recording configuration, late INa activators are added to each well 4 times over a 16-17 minute period so that the late component of the Na current reaches a stable value. Compounds are then added (typically at 10 μM), in the presence of late INa activator, with 3 additions over the course of 7 or 8 minutes. […]
A general note: In patch-clamp work, channel activity is measured electrically.

wild-type human cardiac sodium channel, hNav1.5 (late sodium current) in HEK293 cells, sequence (Q14524 whole entry): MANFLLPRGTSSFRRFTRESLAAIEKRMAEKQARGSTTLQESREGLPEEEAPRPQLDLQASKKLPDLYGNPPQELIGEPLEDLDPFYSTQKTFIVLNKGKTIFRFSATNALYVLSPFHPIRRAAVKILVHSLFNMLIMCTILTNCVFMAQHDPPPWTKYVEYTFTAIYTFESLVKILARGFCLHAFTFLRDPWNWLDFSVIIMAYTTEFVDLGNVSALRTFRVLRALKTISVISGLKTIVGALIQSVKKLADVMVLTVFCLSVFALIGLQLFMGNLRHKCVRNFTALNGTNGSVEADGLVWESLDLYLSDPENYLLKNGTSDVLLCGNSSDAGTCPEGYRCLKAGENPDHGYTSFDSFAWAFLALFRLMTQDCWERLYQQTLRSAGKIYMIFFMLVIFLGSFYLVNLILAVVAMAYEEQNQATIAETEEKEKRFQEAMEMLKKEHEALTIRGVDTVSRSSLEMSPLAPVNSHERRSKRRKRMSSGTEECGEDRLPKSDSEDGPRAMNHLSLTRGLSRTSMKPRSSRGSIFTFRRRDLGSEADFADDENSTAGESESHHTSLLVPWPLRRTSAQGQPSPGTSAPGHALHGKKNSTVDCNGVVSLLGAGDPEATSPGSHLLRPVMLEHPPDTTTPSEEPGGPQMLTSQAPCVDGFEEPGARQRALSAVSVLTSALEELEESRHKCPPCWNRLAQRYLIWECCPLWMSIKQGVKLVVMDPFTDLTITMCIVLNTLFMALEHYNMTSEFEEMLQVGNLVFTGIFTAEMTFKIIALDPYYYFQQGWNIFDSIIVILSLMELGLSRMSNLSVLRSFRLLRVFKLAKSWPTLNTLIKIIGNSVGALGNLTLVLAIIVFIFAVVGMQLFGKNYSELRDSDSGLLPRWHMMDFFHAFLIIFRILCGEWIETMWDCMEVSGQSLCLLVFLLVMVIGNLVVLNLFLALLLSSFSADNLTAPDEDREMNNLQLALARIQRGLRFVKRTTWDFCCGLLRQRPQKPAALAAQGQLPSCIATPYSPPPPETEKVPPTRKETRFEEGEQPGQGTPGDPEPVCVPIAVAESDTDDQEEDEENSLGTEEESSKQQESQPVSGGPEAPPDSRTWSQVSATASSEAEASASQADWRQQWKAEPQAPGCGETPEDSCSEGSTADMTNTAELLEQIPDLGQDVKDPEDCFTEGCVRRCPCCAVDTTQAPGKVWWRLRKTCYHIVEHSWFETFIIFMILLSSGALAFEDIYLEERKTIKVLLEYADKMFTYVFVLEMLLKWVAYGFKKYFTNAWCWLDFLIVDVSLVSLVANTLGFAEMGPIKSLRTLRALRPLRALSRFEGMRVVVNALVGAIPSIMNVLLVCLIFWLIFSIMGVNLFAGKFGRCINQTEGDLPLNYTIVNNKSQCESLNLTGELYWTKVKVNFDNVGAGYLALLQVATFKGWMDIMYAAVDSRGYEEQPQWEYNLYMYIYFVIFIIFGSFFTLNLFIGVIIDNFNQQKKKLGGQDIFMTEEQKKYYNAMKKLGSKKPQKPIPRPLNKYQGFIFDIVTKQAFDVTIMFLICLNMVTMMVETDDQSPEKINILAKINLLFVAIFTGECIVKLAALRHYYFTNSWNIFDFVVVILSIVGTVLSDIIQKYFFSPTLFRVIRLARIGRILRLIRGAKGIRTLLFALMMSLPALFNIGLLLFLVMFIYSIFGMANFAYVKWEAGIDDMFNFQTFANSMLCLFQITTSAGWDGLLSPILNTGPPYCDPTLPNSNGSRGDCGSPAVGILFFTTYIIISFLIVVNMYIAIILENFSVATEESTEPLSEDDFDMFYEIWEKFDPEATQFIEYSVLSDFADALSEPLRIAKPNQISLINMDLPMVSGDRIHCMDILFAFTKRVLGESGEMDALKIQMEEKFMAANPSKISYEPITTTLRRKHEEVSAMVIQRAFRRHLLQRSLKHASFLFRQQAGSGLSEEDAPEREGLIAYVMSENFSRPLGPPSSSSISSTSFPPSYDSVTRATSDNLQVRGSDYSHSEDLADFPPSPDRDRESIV

Take `Cc1noc(Cn2nc3ccc(-c4ccc(OC(F)(F)F)cc4)cn3c2=O)n1` [compound 1, 2-((3-methyl-1,2,4-oxadiazol-5-yl)methyl)-6-(4-(trifluoromethoxy)phenyl)-[1,2,4]triazolo[4,3-a]pyridin-3(2H)-one]: the inhibition at 1 µM came to 27.5%. On the same count and under the same terms, the same measure for `Cc1nonc1Cn1nc2ccc(-c3ccc(OC(F)(F)F)cc3)cn2c1=O` [compound 2, 2-((4-methyl-1,2,5-oxadiazol-3-yl)methyl)-6-(4-(trifluoromethoxy)phenyl)-[1,2,4]triazolo[4,3-a]pyridin-3(2H)-one]: 41.3%; for `Cc1nc(Cn2nc3ccc(-c4ccc(OC(F)(F)F)cc4)cn3c2=O)no1` [compound 3, 2-((5-methyl-1,2,4-oxadiazol-3-yl)methyl)-6-(4-(trifluoromethoxy)phenyl)-[1,2,4]triazolo[4,3-a]pyridin-3(2H)-one]: 29.3%; for `COc1ccccc1OCC(O)Cn1nc2ccc(-c3ccc(OC(F)(F)F)cc3)cn2c1=O` (centres unmarked) [compound 4, 2-(2-hydroxy-3-(2-methoxyphenoxy)propyl)-6-(4-(trifluoromethoxy)phenyl)-[1,2,4]triazolo[4,3-a]pyridin-3(2H)-one]: 20.8%. On the same count and under the same terms, the same measure for `Cc1cc(Cn2nc3ccc(-c4ccc(OC(F)(F)F)cc4)cn3c2=O)no1` [compound 5, 2-((5-methylisoxazol-3-yl)methyl)-6-(4-(trifluoromethoxy)phenyl)-[1,2,4]triazolo[4,3-a]pyridin-3(2H)-one]: 28.3%; for `Cc1noc(C)c1Cn1nc2ccc(-c3ccc(OC(F)(F)F)cc3)cn2c1=O` [compound 6, 2-((3,5-dimethylisoxazol-4-yl)methyl)-6-(4-(trifluoromethoxy)phenyl)-[1,2,4]triazolo[4,3-a]pyridin-3(2H)-one]: 15.2%; for `O=c1n(Cc2noc(-c3cccc(C(F)(F)F)c3)n2)nc2ccc(-c3ccc(OC(F)(F)F)cc3)cn12` [compound 7, 6-(4-(trifluoromethoxy)phenyl)-2-((5-(3-(trifluoromethyl)phenyl)-1,2,4-oxadiazol-3-yl)methyl)-[1,2,4]triazolo[4,3-a]pyridin-3(2H)-one]: 24.5%. Same read-out and setting: next, `Cc1nc(-c2cccc(Cn3nc4ccc(-c5ccc(OC(F)(F)F)cc5)cn4c3=O)c2)no1` [compound 8, 2-(3-(5-methyl-1,2,4-oxadiazol-3-yl)benzyl)-6-(4-(trifluoromethoxy)phenyl)-[1,2,4]triazolo[4,3-a]pyridin-3(2H)-one]: 16.3%. Turning to `O=c1n(Cc2nc(-c3c(Cl)cccc3Cl)no2)nc2ccc(-c3ccc(OC(F)(F)F)cc3)cn12` [compound 9, 2-((3-(2,6-dichlorophenyl)-1,2,4-oxadiazol-5-yl)methyl)-6-(4-(trifluoromethoxy)phenyl)-[1,2,4]triazolo[4,3-a]pyridin-3(2H)-one], the inhibition at 1 µM came to 29.8%. On the same count and under the same terms, next, `O=c1n(Cc2ccc3nonc3c2)nc2ccc(-c3ccc(OC(F)(F)F)cc3)cn12` [compound 10, 2-(benzo[c][1,2,5]oxadiazol-5-ylmethyl)-6-(4-(trifluoromethoxy)phenyl)-[1,2,4]triazolo[4,3-a]pyridin-3(2H)-one]: 16.9%. Still for that read-out and setting: the same measure for `COc1ccccc1-c1nc(Cn2nc3ccc(-c4ccc(OC(F)(F)F)cc4)cn3c2=O)no1` [compound 11, 2-((5-(2-methoxyphenyl)-1,2,4-oxadiazol-3-yl)methyl)-6-(4-(trifluoromethoxy)phenyl)-[1,2,4]triazolo[4,3-a]pyridin-3(2H)-one]: 22%. `O=c1n(Cc2ccc(OC(F)(F)F)cc2)nc2ccc(-c3ccc(OC(F)(F)F)cc3)cn12` [compound 12, 2-(4-(trifluoromethoxy)benzyl)-6-(4-(trifluoromethoxy)phenyl)-[1,2,4]triazolo[4,3-a]pyridin-3(2H)-one]: the inhibition at 1 µM was determined as 11.1%. Same read-out and setting: next, `O=c1n(Cc2ccc3ccccc3n2)nc2ccc(-c3ccc(OC(F)(F)F)cc3)cn12` [compound 13, 2-(quinolin-2-ylmethyl)-6-(4-(trifluoromethoxy)phenyl)-[1,2,4]triazolo[4,3-a]pyridin-3(2H)-one]: 24.6%. On the same count and under the same terms, next, `CCc1noc(C(C)n2nc3ccc(-c4ccc(OC(F)(F)F)cc4)cn3c2=O)n1` (centres unmarked) [compound 14, 2-(1-(3-ethyl-1,2,4-oxadiazol-5-yl)ethyl)-6-(4-(trifluoromethoxy)phenyl)-[1,2,4]triazolo[4,3-a]pyridin-3(2H)-one]: 12%. As for `CCc1noc(Cn2nc3ccc(-c4ccc(OC(F)(F)F)cc4)cn3c2=O)n1` [compound 15, 2-((3-ethyl-1,2,4-oxadiazol-5-yl)methyl)-6-(4-(trifluoromethoxy)phenyl)-[1,2,4]triazolo[4,3-a]pyridin-3(2H)-one], under “compound at 1 μM”, the “Late INa 1 μM (percent block of late INa)” value was 13.5253%. `O=c1n(Cc2ccccn2)nc2ccc(-c3ccc(OC(F)(F)F)cc3)cn12` [compound 16, 2-(pyridin-2-ylmethyl)-6-(4-(trifluoromethoxy)phenyl)-[1,2,4]triazolo[4,3-a]pyridin-3(2H)-one]: the inhibition at 1 µM came to 11.5%.

For the molecule `O=c1n(Cc2nonc2-c2ccccc2)nc2ccc(-c3ccc(OC(F)(F)F)cc3)cn12` [compound 17, 2-((4-phenyl-1,2,5-oxadiazol-3-yl)methyl)-6-(4-(trifluoromethoxy)phenyl)-[1,2,4]triazolo[4,3-a]pyridin-3(2H)-one], the inhibition at 1 µM turned out to be 18.4%. The same measure, in the same setting: next, `Cc1nnc(Cn2nc3ccc(-c4ccc(OC(F)(F)F)cc4)cn3c2=O)o1` [compound 18, 2-((5-methyl-1,3,4-oxadiazol-2-yl)methyl)-6-(4-(trifluoromethoxy)phenyl)-[1,2,4]triazolo[4,3-a]pyridin-3(2H)-one]: 11.5%; `O=c1n(Cc2ncco2)nc2ccc(-c3ccc(OC(F)(F)F)cc3)cn12` [compound 19, 2-(oxazol-2-ylmethyl)-6-(4-(trifluoromethoxy)phenyl)-[1,2,4]triazolo[4,3-a]pyridin-3(2H)-one]: 18.1%; `O=c1n(Cc2nc3ccccc3s2)nc2ccc(-c3ccc(OC(F)(F)F)cc3)cn12` [compound 20, 2-(benzo[d]thiazol-2-ylmethyl)-6-(4-(trifluoromethoxy)phenyl)-[1,2,4]triazolo[4,3-a]pyridin-3(2H)-one]: 17.4%. The same measure, in the same setting: the same measure for `Cc1oc(-c2ccccc2)nc1Cn1nc2ccc(-c3ccc(OC(F)(F)F)cc3)cn2c1=O` [compound 21, 2-((5-methyl-2-phenyloxazol-4-yl)methyl)-6-(4-(trifluoromethoxy)phenyl)-[1,2,4]triazolo[4,3-a]pyridin-3(2H)-one]: 11%; for `Cc1nc(Cn2nc3ccc(-c4ccc(OC(F)(F)F)cc4)cn3c2=O)oc1C` [compound 22, 2-((4,5-dimethyloxazol-2-yl)methyl)-6-(4-(trifluoromethoxy)phenyl)-[1,2,4]triazolo[4,3-a]pyridin-3(2H)-one]: 29.4%. Regarding `COc1ccccc1OCC(Cn1nc2ccc(-c3ccc(OC(F)(F)F)cc3)cn2c1=O)OC` (centres unmarked) [compound 23, 2-(2-methoxy-3-(2-methoxyphenoxy)propyl)-6-(4-(trifluoromethoxy)phenyl)-[1,2,4]triazolo[4,3-a]pyridin-3(2H)-one], the inhibition at 1 µM came to 55.1%.
